According to patent publication US12521375B2, “Pharmaceutical composition for treating fatty liver disease” (Shionogi & Co., Ltd., priority 2020, dated 2026):
Like-named read-outs stand apart in the source and are kept apart here.

Experiments:
[1] = Metabolic stability test (rat); type: in vitro ADME
Description: [Worded in the source for another species; this species is reported under the same test.] (§1) Commercially available pooled human liver microsomes were reacted with the compound of the present invention for a given time. A residual rate was calculated by comparison between the reacted sample and the unreacted sample to evaluate a degree at which the compound of the present invention is metabolized in the liver.
(§2) The compound was reacted at 37° C. for 0 minutes or 30 minutes in the presence of 1 mmol/L NADPH in 0.2 mL of a buffer (50 mmol/L Tris-HCl pH 7.4, 150 mmol/L potassium chloride, and 10 mmol/L magnesium chloride) containing 0.5 mg protein/mL of the human liver microsomes (oxidative reaction). After the reaction, 50 μL of the reaction solution was added to 100 μL of a solution of methanol/acetonitrile=1/1 (v/v) and mixed, and the mixture was centrifuged at 3000 rpm for 15 minutes. The compound of the present invention in the centrifuged supernatant was quantified by LC/MS/MS or solid-phase extraction (SPE)/MS. The amount of the compound of the present invention remained after the reaction was calculated with the amount of the compound at 0 minutes of the reaction defined as 100%.

recombinant human ACC1 = recombinant human ACC1 (Homo sapiens (Human), UniProt Q13085); test: Measurement of inhibitory activity of human ACC1; type: biochemical; conditions: read-out: IC50 hACC1
Source text: A cDNA encoding human ACC1 protein (1 amino acid residue to 2346 amino acid residues from the N-terminus) was cloned from a human liver cDNA library (BioChain Institute Inc.), myc tag and His-tag sequences were introduced at the 3′ end, and then inserted into pIEXBAC3 (Novagen). A recombinant baculovirus was produced in accordance with the protocol for FlashBACGOLD (Oxford Expression Technologies Ltd.), and Sf-9 cells were infected therewith to express human ACC1 protein. The recovered cells were crushed, filtered through a filter, and then subjected to Ni affinity chromatography and anion exchange chromatography. Fractions containing human ACC1 protein were collected to obtain recombinant human ACC1.
(§3) The recombinant human ACC1 and the recombinant human ACC2 obtained from the above Preparation Examples were preincubated in an assay buffer (50 mM HEPES-KOH (pH 7.4), 10 mM magnesium chloride, 6 to 10 mM potassium citrate, 4 mM reduced glutathione, and 1.5 mg/ml bovine serum albumin) for 1 hour. Then, 5 μL of the pre-incubated enzyme solution and 5 μL of a substrate solution (50 mM HEPES-KOH (pH 7.4), 1 mM ATP, 0.8 mM acetyl-CoA, and 25 to 50 mM potassium bicarbonate) were added to a 384-well microplate into which 0.2 μL of each of solutions of the compound of the present invention (DMSO) had been dispensed, and the mixture was centrifuged and shaken, and then incubated in a wet box at room temperature for 1 to 3 hours. After incubation, the enzymatic reaction was stopped by addition of EDTA, and then the compound was co-crystallized with an α-cyano-4-hydroxy cinnamic acid (CHCA) matrix on a MALDI target plate, and measurement was performed in a reflector negative mode using a matrix-assisted laser desorption ionization-time-of-flight mass spectrometer (MALDI-TOF MS). Deprotonated ions of the substrate acetyl-CoA (AcCoA) and the reaction product malonyl-CoA (MalCoA) were detected, and the intensity of each signal was used to calculate a conversion rate to malonyl-CoA […], i.e., intensity of [MalCoA-H]-/(intensity of [MalCoA-H]-+intensity of [AcCoA-H]-). […] The potassium citrate concentration in the assay buffer, the potassium bicarbonate concentration in the substrate solution, and the incubation time were adjusted within the above concentrations or reaction times for each lot of the enzyme to be used.

[2] = Metabolic stability test (human); type: in vitro ADME; conditions: human liver microsomes, 37° C., 30 minutes, NADPH
Description: as §1, §2

recombinant human ACC2 = recombinant human ACC2 (Homo sapiens (Human), UniProt O00763); test: Measurement of inhibitory activity of human ACC2; type: biochemical; conditions: read-out: IC50 hACC2
Source text: A cDNA encoding human ACC2 protein (27 amino acid residues to 2458 amino acid residues from the N-terminus) was cloned from a human kidney cDNA library (Clontech Laboratories, Inc.), a His-tag sequence was introduced at the 5′ end, and then inserted into pFastBac1 (Invitrogen). A recombinant baculovirus was produced in accordance with the protocol for a Bac-to-Bac baculovirus expression system (Invitrogen), and Sf-9 cells were infected therewith to express human ACC2 protein. The recovered cells were crushed, filtered through a filter, and then subjected to Ni affinity chromatography and anion exchange chromatography. Fractions containing human ACC2 protein were collected to obtain recombinant human ACC2.
as §3, with “Then, 5 μL of the pre-incubated enzyme solution and 5 μL of a substrate solution (50 mM HEPES-KOH (pH 7.4), 1 mM ATP, 0.8 mM acetyl-CoA, and 25 to 50 mM potassium bicarbonate) were added to a 384-well microplate into which 0.2 μL of each of solutions of the compound of the present invention (DMSO) had been dispensed, and the mixture was centrifuged and shaken, and then incubated in a wet box at room temperature for 1 to 3 hours.” left out

healthy subjects = conditions: repeated administration to healthy subjects; cited from earlier work
NAFLD patients = conditions: cited from earlier work

Chain of recombinant human ACC2 (O00763 27-2458): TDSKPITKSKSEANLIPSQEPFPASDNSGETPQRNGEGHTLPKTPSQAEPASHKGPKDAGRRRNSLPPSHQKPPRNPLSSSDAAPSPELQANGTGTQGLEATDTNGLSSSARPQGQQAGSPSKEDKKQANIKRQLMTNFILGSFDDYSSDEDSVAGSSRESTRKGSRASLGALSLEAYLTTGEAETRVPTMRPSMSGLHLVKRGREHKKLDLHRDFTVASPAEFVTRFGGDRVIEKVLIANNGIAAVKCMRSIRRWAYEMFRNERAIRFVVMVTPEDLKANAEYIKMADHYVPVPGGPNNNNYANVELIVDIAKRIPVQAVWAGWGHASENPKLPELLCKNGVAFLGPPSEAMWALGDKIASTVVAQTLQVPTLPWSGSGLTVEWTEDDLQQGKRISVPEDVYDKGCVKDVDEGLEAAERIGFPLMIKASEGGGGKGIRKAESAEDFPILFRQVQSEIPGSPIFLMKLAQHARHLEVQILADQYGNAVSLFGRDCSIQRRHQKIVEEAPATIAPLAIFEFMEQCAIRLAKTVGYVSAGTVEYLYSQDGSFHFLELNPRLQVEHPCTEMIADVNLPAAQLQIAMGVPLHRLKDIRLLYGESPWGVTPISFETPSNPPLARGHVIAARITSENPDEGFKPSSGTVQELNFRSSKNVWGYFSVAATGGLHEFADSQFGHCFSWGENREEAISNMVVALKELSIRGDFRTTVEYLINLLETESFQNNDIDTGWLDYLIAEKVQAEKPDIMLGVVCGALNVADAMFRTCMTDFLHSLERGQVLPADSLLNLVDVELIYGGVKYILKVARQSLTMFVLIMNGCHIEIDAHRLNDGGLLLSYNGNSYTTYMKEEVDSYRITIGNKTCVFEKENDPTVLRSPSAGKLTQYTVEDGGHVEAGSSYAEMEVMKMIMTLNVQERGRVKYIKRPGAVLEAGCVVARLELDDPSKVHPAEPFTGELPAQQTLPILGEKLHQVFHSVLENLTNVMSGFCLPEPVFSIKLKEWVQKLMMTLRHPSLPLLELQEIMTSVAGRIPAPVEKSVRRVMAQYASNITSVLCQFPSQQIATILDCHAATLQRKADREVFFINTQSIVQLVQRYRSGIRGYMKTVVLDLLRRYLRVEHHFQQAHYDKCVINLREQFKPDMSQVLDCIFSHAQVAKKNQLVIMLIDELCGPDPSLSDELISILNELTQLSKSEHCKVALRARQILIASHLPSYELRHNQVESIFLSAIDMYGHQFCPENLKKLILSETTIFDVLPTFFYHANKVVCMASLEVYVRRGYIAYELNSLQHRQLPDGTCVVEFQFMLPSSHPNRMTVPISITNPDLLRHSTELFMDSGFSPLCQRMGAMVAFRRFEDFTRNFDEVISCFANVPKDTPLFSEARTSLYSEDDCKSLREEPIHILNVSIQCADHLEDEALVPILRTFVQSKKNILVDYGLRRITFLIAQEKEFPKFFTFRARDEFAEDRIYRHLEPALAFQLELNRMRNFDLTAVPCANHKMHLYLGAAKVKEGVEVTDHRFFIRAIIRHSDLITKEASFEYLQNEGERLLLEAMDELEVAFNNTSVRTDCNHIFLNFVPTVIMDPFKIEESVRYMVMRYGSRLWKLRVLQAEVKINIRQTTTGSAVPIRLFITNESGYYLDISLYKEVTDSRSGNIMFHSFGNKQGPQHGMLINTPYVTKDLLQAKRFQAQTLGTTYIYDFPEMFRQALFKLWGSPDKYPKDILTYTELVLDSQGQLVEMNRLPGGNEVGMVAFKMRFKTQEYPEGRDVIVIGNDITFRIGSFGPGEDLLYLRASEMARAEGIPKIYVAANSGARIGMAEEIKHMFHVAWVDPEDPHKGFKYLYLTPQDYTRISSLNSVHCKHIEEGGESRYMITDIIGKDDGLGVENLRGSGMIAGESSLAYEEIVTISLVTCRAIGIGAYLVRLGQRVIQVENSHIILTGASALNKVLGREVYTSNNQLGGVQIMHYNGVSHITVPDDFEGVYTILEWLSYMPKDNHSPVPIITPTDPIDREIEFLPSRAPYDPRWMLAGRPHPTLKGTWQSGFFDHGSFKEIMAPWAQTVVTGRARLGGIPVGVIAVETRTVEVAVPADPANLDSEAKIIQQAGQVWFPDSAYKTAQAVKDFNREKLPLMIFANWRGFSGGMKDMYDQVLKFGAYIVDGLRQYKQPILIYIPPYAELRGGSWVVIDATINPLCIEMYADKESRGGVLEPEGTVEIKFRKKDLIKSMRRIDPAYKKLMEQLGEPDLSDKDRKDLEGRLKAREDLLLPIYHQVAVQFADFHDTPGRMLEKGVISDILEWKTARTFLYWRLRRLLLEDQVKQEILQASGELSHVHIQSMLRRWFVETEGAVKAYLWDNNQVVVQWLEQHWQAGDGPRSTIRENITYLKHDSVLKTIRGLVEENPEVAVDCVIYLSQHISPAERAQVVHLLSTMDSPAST

| SMILES | Amount of compound remained, Rat [1] [%] | IC50 (recombinant human ACC1) [nM] | Amount of compound remained, Human [2] [%] | IC50 (recombinant human ACC2) [nM] | platelet concentration (healthy subjects) | Plasma triglyceride concentration (NAFLD patients) | Plasma triglyceride concentration (NAFLD patients; phase II study over 12 weeks) |
| --- | --- | --- | --- | --- | --- | --- | --- |
| CC(=O)N[C@@H](C)CO[C@H]1CC[C@H](Oc2nc3c(F)cc(OC4CC4)cc3n2C)CC1 [Compound I-15] | 76.2 | 1700 | 80.2 | 3.8 | – | – | – |
| CC(=O)N[C@@H](C)CO[C@H]1CC[C@H](Oc2nc3c(Cl)cc(OC4CC4)cc3n2C)CC1 [Compound I-3] | 82.6 | 2800 | 80.3 | – | – | – | – |
| CC(=O)N[C@@H](C)CO[C@H]1CC[C@H](Oc2nc3c(F)cc(OC4CCC4)cc3n2C)CC1 [Compound I-1] | – | 320 | – | – | – | – | – |
| CC(=O)N[C@@H](C)C(F)(F)C[C@H]1CC[C@H](Oc2nc3c(F)cc(OCC(F)F)c(F)c3n2C)CO1 [Compound I-6] | 74 | 920 | 93.2 | 12 | – | – | – |
| C[C@@H](CO[C@H]1CC[C@H](Oc2nc3c(Cl)cc(OC4CC4)cc3n2C)CC1)NC(N)=O [Compound I-8] | 85.4 | 6200 | 83.6 | 17 | – | – | – |
| CC(=O)N[C@@H](C)CO[C@H]1CC[C@H](Oc2nc3c(F)cc(OCC(F)F)c(F)c3n2C)CC1 [Compound I-14] | 78 | 2700 | 94.8 | 6.6 | – | – | – |
| CC(=O)N[C@@H](CF)CO[C@H]1CC[C@H](Oc2nc3c(F)cc(OC4CC4)cc3n2C)CC1 [Compound I-4] | 87.3 | 2700 | 93.4 | 4.7 | – | – | – |
| CC(=O)N[C@@H](C)CC[C@H]1OC[C@H](Oc2nc3c(F)cc(OCC(F)F)c(F)c3n2C)CC1(F)F [Compound I-9] | – | 2600 | – | 13 | – | – | – |
| Cc1nc2ccc(C(=O)N3CCC4(CC3)CC(=O)c3c(cnn3C(C)C)C4)cc2[nH]1 [PF-05175157] | – | – | – | – | reduced a platelet concentration | – | – |
| CC(=O)N[C@@H](C)CC(F)(F)[C@@H]1CC[C@@H](Oc2nc3c(F)cc(OCC(F)F)c(F)c3n2C)CO1 [Compound I-10] | – | > 100000 | – | 89 | – | – | – |
| CC(=O)N[C@H](C)C(F)(F)C[C@H]1CC[C@H](Oc2nc3c(F)cc(OCC(F)F)c(F)c3n2C)CO1 [Compound I-7] | 74.7 | 25000 | 89.1 | 180 | – | – | – |
| Cn1c(O[C@H]2CC[C@H](OC[C@H](CF)NC(N)=O)CC2)nc2c(F)cc(OC3CC3)cc21 [Compound I-5] | 83.4 | 6900 | 98.9 | 8.9 | – | – | – |
| C[C@@H](CCC1OCC(Oc2nc3c(F)cc(OCC(F)F)c(F)c3n2C)CO1)NC(N)=O (stereo partly drawn) [Compound I-11] | 94.5 | 7000 | 95.8 | 9.6 | – | – | – |
| CC(=O)N[C@@H](C)CC[C@H]1OC[C@H](Oc2nc3c(F)cc(OCC(F)F)c(F)c3n2C)C[C@@H]1F [Compound I-2] | – | 2400 | – | 10 | – | – | – |
| COc1cc(C(=O)N2CCC3(CC2)CC(=O)c2cc(-c4cncc(C(=O)O)c4)ccc2O3)cc2c1c(C)cn2C1CC1 [MK-4074] | – | – | – | – | – | elevated plasma triglyceride concentration | – |
| COc1ccccc1[C@H](Cn1c(=O)n(C(C)(C)C(=O)O)c(=O)c2c(C)c(-c3ncco3)sc21)OC1CCOCC1 [firsocostat] | – | – | – | – | – | – | elevated plasma triglyceride concentration |
